Consider one substance from patent US20230117252A1, “CELL SHEET HAVING FIBROSIS INHIBITORY ACTION” (NATIONAL UNIVERSITY CORPORATION TOTTORI UNIVERSITY, priority 2017, published 2023).

For one experiment, the system named is MMP-1. Kind of experiment: MMP-1 activity of trypsin-treated cell suspension and cell sheet at different seeding densities (Example 1). The format is cell-based. To be noted: for MMP1 average: UE7T-13 cells. Here is the method: (§1) In the present disclosure, the MMP activity can be determined by measuring the enzyme activity using a fluorescence resonance energy transfer (FRET) peptide that generates fluorescence upon cleavage by MMP.
(§2) After four days, the temperature-responsive culture dishes were moved into a 32° C., 5% CO2 incubator, and sheets were made. The cell sheets obtained were washed three times with PBS, then homogenized in the buffer of an MMP activity measurement kit (SensoLyte® 520 MMP-1 Assay Kit Fluorimetric, (ANASPEC Co.: Cat #: AS-71150) and SensoLyte® 520 MMP-14 Assay Kit Fluorimetric (ANASPEC Co.: Cat #AS72025)). The cells seeded in the ordinary cell culture dishes were dispersed in 0.025% trypsin/0.1 mM EDTA, recovered by centrifugation, then washed three times with PBS and homogenized in the buffer for the MMP activity measurement. The results in FIG. 1 show the results on MMP-1 (FIG. 1A) and MMP-14 (FIG. 1B) per cell. […] It was a surprising result that the MMP-1 activity per cell was increased by increasing the seeding density.

A further experiment has as its system MMP-14. Kind of experiment: MMP-14 activity of trypsin-treated cell suspension and cell sheet at different seeding densities (Example 1). The format is cell-based. The following applies: for MMP14 average: UE7T-13 cells.
Description: as §1
as §2, with “Bone marrow-derived mesenchymal stem cells (UE7T-13 cell line) were suspended in DMED/10% FBS and seeded to make respective seeded cell densities of 3.6×10^4 cells/cm^2, 5.4×10^4 cells/cm^2, and 7.2×10^4 cells/cm^2 in temperature-responsive culture dishes and ordinary cell culture dishes. After” for “After”

Setting [1] is: seeding density 1.8 × 10^4 cells/cm^2, per cell.
The mark [2] stands for this setting: seeding density 3.6 × 10^4 cells/cm^2, per cell.
The mark [3] stands for this setting: seeding density 5.4 × 10^4 cells/cm^2, per cell.
Where [4] appears, read: seeding density 7.2 × 10^4 cells/cm^2, per cell.

With Trypsin, the “increase of MMP activity when the seeding density was increased four-fold” value in the experiment with MMP-1 (Example 1, MMP-1 and MMP-14 together) was “about four-fold”. The “increase of MMP-1 activity when the seeding density was increased four-fold” value with MMP-1 (FIG. 1A) was “about four-fold”. Besides, the MMP1 average in the experiment with MMP-1 (setting [1]) was found to be 103548.8; in the experiment on MMP-1 (setting [2]), 242642.7; with MMP-1 (setting [3]), 326635.6; with MMP-1 (setting [4]), 462976. The “increase of MMP-14 activity when the seeding density was increased four-fold” value in the experiment with MMP-14 (FIG. 1B) is recorded as “about four-fold”. Besides, the MMP14 average turned out to be 156184.1 with MMP-14 (setting [1]), 353634.5 with MMP-14 (setting [2]), 427591.6 in the experiment with MMP-14 (setting [3]) and 576164 with MMP-14 (setting [4]).
